Results: patent publication US20050096323A1, “Diketopiperazine derivatives to inhibit thrombin” (NovoScience Pharma Inc., priority 1999, published 2005)
Counter-ions that a name gives are not always drawn.

Experiments:
[1] = tested on: SD rats; test: RT, TT, PT, APTT and FIB in rat plasma after administration; format: in vivo; parameters: FIB (Fibrillation) / RT (Clot Retraction Time) / TT (Thrombin Time): unit not given here
Method: Blood was taken at 0.5 h and 1.5 h after i.v. injection and at 1 h and 3 h after i.g. and plasma RT,TT,PT,APTT and FIB were determined.

[2] = molecular target: T1, trypsin (Bos taurus, UniProt P00760); test: Trypsin inhibition constant (Ki), fluorogenic substrate assay; format: biochemical
T1 sequence (P00760 24-246): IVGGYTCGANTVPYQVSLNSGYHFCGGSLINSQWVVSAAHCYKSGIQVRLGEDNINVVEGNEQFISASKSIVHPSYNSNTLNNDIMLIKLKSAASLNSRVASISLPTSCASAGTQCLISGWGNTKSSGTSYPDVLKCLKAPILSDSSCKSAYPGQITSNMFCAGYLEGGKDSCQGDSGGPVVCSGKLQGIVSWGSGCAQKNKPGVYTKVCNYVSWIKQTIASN
Method: The activity and selectivity of the present invention can be identified by determination of the inhibition constant (Ki) for serine proteases such thrombin and trypsin and fibrinolytic enzymes such as urokinase, plasmin and tissue plasminogen activator (tPA). All of enzymes are purchased from Sigma. The general assay conditions are as follows. The fluorogenic substrates are dissolved in DMSO and diluted using assay buffer containing 50 mM Tris.HCl (pH 7.8 at 25° C.), 0.1 M NaCl and 0.1% polyethylene glycol 8000 (PEG 8000). […] The assays were conducted using Hitachi F2500 spectrophotometer under ambient temperature and at the excitation and emission wavelengths of 383 nm and 455 nm, respectively. The typical progressive data of the enzymatic assays are shown in FIGS. 1-3, and the determination of inhibition constant (Ki) is shown in FIG. 4.

[3] = tested on: ICR mice; test: Acute toxicity, oral gavage, determination of the maximal dose; format: in vivo
Description: The dose is based on maximal dissolution rate and maximal administered volume of the drug.

[4] = tested on: ICR mice; test: Clotting time (CT) of mice whole blood after administration; format: in vivo
Method: Blood samples were collected using the capillary method 0.5 h and 1.5 h after i.v. injections and 1 h and 3 h after i.g. and clotting time of whole blood was measured.

[5] = i.v. 0.25 mg/kg, first time point (0.5 h)
[6] = i.v. 0.25 mg/kg, second time point (1.5 h)

SMILES: CC1CNc2c(cccc2S(=O)(=O)N2C(=O)C3CC(C)CCN3C(=O)C2CCCNC(=N)N)C1 [NPI1999, (3S,6R,8R)-Bicyclo[4.4.0]-1,4-diaza-3-(3-guanidinopropyl)-4-N-(1,2,3,4-tetrahydro-3-methyl-8-quinolinesulfonyl)-8-methyl-2,5-decanedione, hydrochoride salt]
- TT (Thrombin Time) ([1]; 0.125 mg/kg i.v., 0.5 h): 53.6 ± 11.1
- APTT (Activated Partial Prothromboplastin Time) ([1]; 0.125 mg/kg i.v., 1.5 h): 28.1 ± 4.6
- FIB (Fibrillation) ([1]; 0.125 mg/kg i.v., 1.5 h): 4.5 ± 1.2
- PT (Prothrombin Time) ([1]; 0.125 mg/kg i.v., 1.5 h): 25.0 ± 7.1
- RT (Clot Retraction Time) ([1]; 0.125 mg/kg i.v., 1.5 h): 60.4 ± 15.9
- TT (Thrombin Time) ([1]; 0.125 mg/kg i.v., 1.5 h): 39.2 ± 12.5
- APTT (Activated Partial Prothromboplastin Time) ([1]; 0.25 mg/kg i.v., 0.5 h): 46.7 ± 15.0
- FIB (Fibrillation) ([1]; 0.25 mg/kg i.v., 0.5 h): 2.09 ± 0.5
- PT (Prothrombin Time) ([1]; 0.25 mg/kg i.v., 0.5 h): 43.1 ± 17.8
- RT (Clot Retraction Time) ([1]; 0.25 mg/kg i.v., 0.5 h): 107.6 ± 33.7
- TT (Thrombin Time) ([1]; 0.25 mg/kg i.v., 0.5 h): 62.1 ± 15.8
- APTT (Activated Partial Prothromboplastin Time) ([1]; 0.25 mg/kg i.v., 1.5 h): 34.1 ± 10.3
- FIB (Fibrillation) ([1]; 0.25 mg/kg i.v., 1.5 h): 2.7 ± 0.8
- PT (Prothrombin Time) ([1]; 0.25 mg/kg i.v., 1.5 h): 34.6 ± 10.1
- RT (Clot Retraction Time) ([1]; 0.25 mg/kg i.v., 1.5 h): 78.6 ± 16
- TT (Thrombin Time) ([1]; 0.25 mg/kg i.v., 1.5 h): 49.6 ± 10.9
- APTT (Activated Partial Prothromboplastin Time) ([1]; 75 mg/kg i.g., 1 h): 30.2 ± 6.9
- FIB (Fibrillation) ([1]; 75 mg/kg i.g., 1 h): 4.4 ± 0.7
- PT (Prothrombin Time) ([1]; 75 mg/kg i.g., 1 h): 26.6 ± 5.5
- RT (Clot Retraction Time) ([1]; 75 mg/kg i.g., 1 h): 74.8 ± 16.6
- TT (Thrombin Time) ([1]; 75 mg/kg i.g., 1 h): 53.2 ± 10.0
- APTT (Activated Partial Prothromboplastin Time) ([1]; 75 mg/kg i.g., 3.0 h): 25.7 ± 4.0
- FIB (Fibrillation) ([1]; 75 mg/kg i.g., 3.0 h): 4.5 ± 0.6
- PT (Prothrombin Time) ([1]; 75 mg/kg i.g., 3.0 h): 26.6 ± 5.7
- RT (Clot Retraction Time) ([1]; 75 mg/kg i.g., 3.0 h): 77 ± 29.9
- TT (Thrombin Time) ([1]; 75 mg/kg i.g., 3.0 h): 42.5 ± 9.4
- RT, TT, PT, APTT, FIB indexes ([1]; i.g. 75 mg/kg, 1 h or 3 h): None of the indexes was significantly affected
- RT, TT, PT, APTT, FIB indexes ([1]; i.v. 0.125 mg/kg, first time point): RT alone was increased
- RT, TT, PT, APTT, FIB indexes ([1]; i.v. 0.125 mg/kg, second time point): none of the indexes were affected significantly
- FIB [1, 5]: reduced
- RT, TT, PT and APTT [1, 5]: significantly increased
- APTT and FIB [1, 6]: no significantly affected
- RT, TT, PT [1, 6]: Only RT,TT,PT were increased
- Cycloargatroban [Ki (Enzyme)/Ki (Thrombin)] vs. Argatroban [Ki (Enzyme)/Ki (Thrombin)] ([2]; listed as Cycloargatroban): +12 fold
- Cycloargatroban [Ki (Enzyme)/Ki (Thrombin)] vs. Argatroban [Ki (Enzyme)/Ki (Thrombin)] ([2]; listed as cycloargatroban): 12 fold
- Maximal dose of oral gavage ([3]; ICR mice, i.g.): 2860 mg/kg
- maximal dose of i.g. ([3]; ICR mice, i.g.): 2.86 g/kg/day
- mortality ([3]; i.g. 1.43 g/kg twice, up to one week): No mortality was observed
- CT (clotting time of whole blood) ([4]; 0.25 mg/kg i.v. group, before administration): 128.53 ± 27.14
- CT (clotting time of whole blood) ([4]; 0.25 mg/kg i.v., 0.5 h): 140.02 ± 26.40
- CT (clotting time of whole blood) ([4]; 0.25 mg/kg i.v., 1.5 h): 139.88 ± 30.40
- CT (clotting time of whole blood) ([4]; 0.5 mg/kg i.v. group, before administration): 125.53 ± 25.03
- CT (clotting time of whole blood) ([4]; 0.5 mg/kg i.v., 0.5 h): 172.88 ± 34.26
- CT (clotting time of whole blood) ([4]; 0.5 mg/kg i.v., 1.5 h): 161.76 ± 40.10
- CT (clotting time of whole blood) ([4]; 1 mg/kg i.v. group, before administration): 124.06 ± 28.96
- CT (clotting time of whole blood) ([4]; 1 mg/kg i.v., 0.5 h): 165.12 ± 30.57
- CT (clotting time of whole blood) ([4]; 1 mg/kg i.v., 1.5 h): 163.62 ± 44.26
- CT (clotting time of whole blood) ([4]; 75 mg/kg i.g. group, before administration): 126.11 ± 22.83
- CT (clotting time of whole blood) ([4]; 75 mg/kg i.g., 1 h): 133.11 ± 29.00
- CT (clotting time of whole blood) ([4]; 75 mg/kg i.g., 3.0 h): 119.39 ± 25.88
- CT (clotting time of whole blood) ([4]; 150 mg/kg i.g. group, before administration): 125.50 ± 23.67
- CT (clotting time of whole blood) ([4]; 150 mg/kg i.g., 1 h): 128.06 ± 30.03
- CT (clotting time of whole blood) ([4]; 150 mg/kg i.g., 3.0 h): 119.44 ± 26.01
- clotting time compared to controls ([4]; i.g. 75 mg/kg and 150 mg/kg, 1 h and 3 h): No significant difference
- clotting time compared to controls ([4]; i.v. 0.5 mg/kg and 1 mg/kg, 0.5 h and 1.5 h): significantly prolonged
